Results on 1 compound are retold here after patent publication US20100111874A1, “METHOD OF CANCER DETECTION AND TREATMENT” (University of Medicine and Dentistry of New Jresey, priority 2007, published 2010).

Assay [1] concerns MCF7/RC breast cancer cells. Kind of assay: MTT assay, CPT IC50. The format is cell-based. Particulars: Homo sapiens, 96 h; MCF7/RC low-level CPT-resistant clone; CPT continuously for 4 days. As for the experimental part:
(§1) Cell survival assays. MTT assay: Cells (3000 cells/well) are plated in 96-well microtiter plates and incubated at 37° C. in a CO2 incubator. For determination of IC50, cells are treated with varying concentrations of CPT for four days. Cells are then incubated with MTT (3-(4,5-dimethylthiazol-2-yl)-2,5-diphenyltetrazolium bromide) for 4 hrs at 37° C. The dye produced by viable cells is dissolved in DMSO and the optical density measured at 570 nm. All assays are performed at least twice in six replicate wells. Clonogenic assay: Cells (100-500 cells/plate) are plated in 6-well tissue culture plates and incubated at 37° C. in a CO2 incubator. Cells are then treated with various concentrations of CPT for 1 hr. Following CPT treatment, cells are washed free of CPT and placed in fresh medium. After 10 days, survived colonies are stained with Methylene blue and counted using the Minicount machine. Cell counting assay: Logarithmically growing cells are treated with various concentrations of CPT for 1 hr. CPT is then removed by washing the plates with CPT-free medium four times. Washed cells are allowed to grow in CPT-free medium for 4 days. Cell survival is determined by counting cells using the Coulter counter after trypsinization.
(§2) Example No. 6. […] Panel A, formation of cleavable complexes in MCF7 and MCF7/RC breast cancer cells. […]
A general note: Tetrazolium dyes change colour on reduction, which living cells bring about.

The test system of the next assay is MCF7 breast cancer cells. Put plainly: MTT assay, CPT IC50. The assay is classed as cell-based. The conditions noted are these: Homo sapiens, 96 h, CPT continuously for 4 days. As for the experimental part:
as §1, §2

Consider `CC[C@@]1(O)C(=O)OCc2c1cc1n(c2=O)Cc2cc3ccccc3nc2-1` [CPT, camptothecin], for which the half-maximal inhibitory concentration (IC50) in assay [1] worked out at 30 nM; with MCF7 breast cancer cells, 3.5 nM.

What is called IC50 is the concentration needed to halve the response being measured. Read a high IC50 as weaker potency.
